The values that follow are results of earlier work, collected in patent publication US20020098221A1, “Oil-in-water emulsion formulation of insecticides” (priority 2000, published 2002).

The conditions of the series: at room temperature.
`COCC(C)O` (centres unmarked) [1-methoxy-2-propanol]: the solubility in water was 100%.

For `OCc1ccccc1` [benzyl alcohol], the solubility in water is on record as 4%.

As for `O=C1CCCCC1` [cyclohexanone], the solubility in water is 8%.

In the case of `C[S+](C)[O-]` [dimethylsulfoxide], the solubility in water was 100%.

For the compound `CN1CCCC1=O` [n-methylpyrrolidone], the solubility in water is 100%.
